Assay results from patent US10363239B2, “Method for inhibiting growth of cancer cells” (Pain Therapeutics, Inc., priority 2013, dated 2019).

Key:
[1] = system: non-small cell lung cancer cell lines; test: Glucose utilization; type: cell-based, human; conditions: data not shown
Protocol: (§1) To determine the effect of Compound C0105 on glucose utilization, the cancer and primary normal cells were plated extremely thinly (10%). Once cells attached, Compound C0105 was added at 0.1, 0.5, 1 or 5 nM in the medium twice daily (6 hours apart) for 4 days. The cells were serum-deprived (glucose deprived) for 2 hours. Cells were then rinsed with 1 ml PBS and glucose uptake was assessed by contacting the cells with [^3H]glucose (0.01 uCi/l ml) in Kreb's Ringer for 2 hours. Cells were then rinsed with 1 ml PBS 3 times, scraped off and their glucose content counted by liquid scintillation spectrophotometry.
. Primary lung fibroblast cells were used as control, non-cancerous cells to illustrate the difference in effects observed (FIG. 1C, FIGS. 1H-1I).

[2] = system: glioblastoma cells (U-87 MG); test: [3H]glucose uptake; type: cell-based, human; conditions: C0105 0.1-5 nM, other compounds 1 and 5 nM, twice daily for 4 days
Protocol: as §1, with “FIG. 1A through FIG. 1M illustrate the effects of various FLNA-binding compounds on glucose uptake in glioblastoma, melanoma, breast and pancreatic cancer cell lines, along with appropriate non-cancerous primary cell controls. Cells were grown in the absence or presence of 0.1-5 nM indicated compounds for 4 days. Following brief washes with PBS, cells were serum-deprived for 4 hours and then incubated in oxygenated Kreb's Ringer containing 0.1 μCi [^3H]glucose for 2 hours under constant oxygenation. The reaction was terminated by removal of the incubation medium, and cells were washed and scraped off to determine the amounts of [^3H]glucose in cells by scintillation spectrometry. […] N=5-6. […] . […] . To” for “To”
(§2) Both glioblastoma and melanoma cells were plated extremely thinly. Once cells attached, Compound C0105 was added at 0.1, 0.5, 1 and 5 nM, whereas the other compounds were present at 1 and 5 nM in the medium twice daily (6 hours apart) for 4 days. The cells were serum-deprived (glucose deprived) for 2 hours. Cells were then rinsed with 1 ml PBS and glucose uptake was assessed by contacting the cells with [3H]glucose (0.01 uCi/l ml) of Kreb's Ringer for 2 hours. Cells were then rinsed with 1 ml PBS 3 times, scraped off and their glucose contents counted by liquid scintillation spectrophotometry.

[3] = system: primary lung fibroblasts; test: [3H]glucose uptake; type: cell-based, human; conditions: C0105 0.1-5 nM, other compounds 1 or 5 nM; 4 days
Protocol: as §1, with “FIG. 1A through FIG. 1M illustrate the effects of various FLNA-binding compounds on glucose uptake in glioblastoma, melanoma, breast and pancreatic cancer cell lines, along with appropriate non-cancerous primary cell controls. Cells were grown in the absence or presence of 0.1-5 nM indicated compounds for 4 days. Following brief washes with PBS, cells were serum-deprived for 4 hours and then incubated in oxygenated Kreb's Ringer containing 0.1 μCi [^3H]glucose for 2 hours under constant oxygenation. The reaction was terminated by removal of the incubation medium, and cells were washed and scraped off to determine the amounts of [^3H]glucose in cells by scintillation spectrometry. […] N=5-6. […] . […] . To” for “To”
as §2

[4] = system: melanoma cells (A2058); test: [3H]glucose uptake; type: cell-based, human; conditions: C0105 0.1-5 nM, other compounds 1 and 5 nM, twice daily for 4 days
Protocol: as §1, with “FIG. 1A through FIG. 1M illustrate the effects of various FLNA-binding compounds on glucose uptake in glioblastoma, melanoma, breast and pancreatic cancer cell lines, along with appropriate non-cancerous primary cell controls. Cells were grown in the absence or presence of 0.1-5 nM indicated compounds for 4 days. Following brief washes with PBS, cells were serum-deprived for 4 hours and then incubated in oxygenated Kreb's Ringer containing 0.1 μCi [^3H]glucose for 2 hours under constant oxygenation. The reaction was terminated by removal of the incubation medium, and cells were washed and scraped off to determine the amounts of [^3H]glucose in cells by scintillation spectrometry. […] N=5-6. […] . […] . To” for “To”
as §2

[5] = system: mu opiate receptor (MOR); test: MOR agonist activity using [35S]GTPγS binding assay in striatal membranes; type: biochemical
Method in brief: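 Striatal membranes (200 μg) were preincubated 5 min at 30 °C in HEPES pH 7.5 with 100 mM NaCl, 1 mM MgCl2 and 0.5 nM [35S]GTPγS, then 5 min more with 0.1–10 μM compound. Gαo was immunoprecipitated and bound radioactivity counted by scintillation.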

[6] = target: FLNA pentapeptide of SEQ ID NO: 1 (Bn-VAKGL) (Homo sapiens, UniProt P21333); test: FITC-NLX-based FLNA screening assay (inhibition of FITC-naloxone binding to Bn-VAKGL on streptavidin plates); conditions: 10 nM FITC-NLX, read-out: Percent Binding Inhibition; for inhibition at 0.01 µM: FLNA-binding compound 0.01 μM; for inhibition at 0.1 µM: FLNA-binding compound 0.1 μM; for inhibition at 1 µM: FLNA-binding compound 1 μM

| Compound | Glucose utilization [1] | Glucose utilization [2] | Glucose uptake / glucose content [3] | Glucose utilization [4] | inhibition at 0.01 µM [6] [%] | inhibition at 0.1 µM [6] [%] | inhibition at 1 µM [6] [%] | also measured |
| --- | --- | --- | --- | --- | --- | --- | --- | --- |
| COc1c2c(cc3c1C(CC(=O)Cc1ccccc1F)[N+](C)(C)CC3)OCO2 (stereo not shown) [Compound B0055] | decreased the elevated glucose utilization | decreased the elevated glucose utilization | no significant inhibition in glucose content | decreased the elevated glucose utilization | – | – | – | % DAMGO (0.1 μM) ([5]; Series B, 0.1 μM compound, relative to DAMGO): 91.8%; MOR agonist activity, percent [35S]GTPγS binding at the stated compound concentration ([5]; Series B, 0.1 μM compound, [35S]GTPγS binding to Gαo, striatal membranes): 162.1%; MOR agonist activity, percent [35S]GTPγS binding at the stated compound concentration ([5]; Series B, 1 μM compound + 1 μM β-FNA): 117.5%; % DAMGO + BFNA ([5]; Series B, 1 μM compound + β-FNA, relative to DAMGO + BFNA): 446.8%; % DAMGO (1 μM) ([5]; Series B, 1 μM compound, relative to DAMGO): 133.1%; MOR agonist activity, percent [35S]GTPγS binding at the stated compound concentration ([5]; Series B, 1 μM compound, [35S]GTPγS binding to Gαo, striatal membranes): 338.5% |
| Cc1ccc(S(=O)(=O)N2CCOC23CCN(CC2CC2)CC3)cc1 [Compound C0134M] | decreased the elevated glucose utilization | decreased the elevated glucose utilization | no significant inhibition in glucose content | decreased the elevated glucose utilization | 55.7 | 60.5 | 61.9 | MOR agonist activity, FLNA-Binding Compound as Agonist 0.1 μM (preliminary study) ([5]; 0.1 μM, average of two runs): 150.7%; MOR agonist activity, FLNA-Binding Compound as Agonist 1 μM + βNFA (preliminary study) ([5]; 1 μM + βNFA, average of two runs): 53.2%; MOR agonist activity, FLNA-Binding Compound as Agonist 1 μM (preliminary study) ([5]; 1 μM, average of two runs): 224.0%; % DAMGO (0.1 μM) ([5]; Series C-2, 0.1 μM compound, relative to DAMGO): 94.6%; MOR agonist activity, percent [35S]GTPγS binding at the stated compound concentration ([5]; Series C-2, 0.1 μM compound, [35S]GTPγS binding to Gαo, striatal membranes): 158.5%; MOR agonist activity, percent [35S]GTPγS binding at the stated compound concentration ([5]; Series C-2, 1 μM compound + 1 μM β-FNA): 46.6%; % DAMGO + BFNA ([5]; Series C-2, 1 μM compound + β-FNA, relative to DAMGO + BFNA): 98.1%; % DAMGO (1 μM) ([5]; Series C-2, 1 μM compound, relative to DAMGO): 93.3%; MOR agonist activity, percent [35S]GTPγS binding at the stated compound concentration ([5]; Series C-2, 1 μM compound, [35S]GTPγS binding to Gαo, striatal membranes): 207.3% |
| CC1CCC(C(C)C)C(OCC(CN2CC(C)OC(C)C2)NCc2ccccc2)C1 (stereo not shown) [Compound A0033] | decreased the elevated glucose utilization | decreased the elevated glucose utilization | no significant inhibition in glucose content | decreased the elevated glucose utilization | 46.4 | 51.8 | 56.5 | MOR agonist activity ([35S]GTPγS binding), FLNA-Binding Compound as Agonist 0.1 μM ([5]; 0.1 μM compound): 155.8%; % DAMGO (0.1 μM) ([5]; 0.1 μM compound relative to DAMGO): 79.4%; MOR agonist activity ([35S]GTPγS binding), FLNA-Binding Compound as Agonist 1 μM ([5]; 1 μM compound): 254.6%; MOR agonist activity ([35S]GTPγS binding), FLNA-Binding Compound as Agonist 1 μM + BFNA ([5]; 1 μM compound + 1 μM β-funaltrexamine): 118.2%; % DAMGO + BFNA ([5]; 1 μM compound + BFNA relative to DAMGO + BFNA): 159.9%; % DAMGO (1 μM) ([5]; 1 μM compound relative to DAMGO): 92.2% |
| O=C1CNC2(CCN(CC3CC3)CC2)N1Cc1ccccc1 [Compound C0124M] | decreased the elevated glucose utilization | decreased the elevated glucose utilization | no significant inhibition in glucose content | decreased the elevated glucose utilization | 47.7 | 52.2 | 58.7 | – |
